Experimental data from US10183015B2, “Heterocyclic compounds and methods of use” (Medivation Technologies LLC, priority 2015, dated 2019).
Where “and” joins values, the source holds several entries; their conditions need not be identical. Identical values can stand only once.

How the values were obtained:
Assay type in all cases: in vivo
Coll1a1 = test: Short-term Paigen-diet NASH mouse model: hepatic Coll1a1 (collagen 1α1) gene expression (RT-qPCR); design: key to Fibrosis gene expression Coll1a1: Dct: Ct of gene minus Ct of 18S reference; key to Fibrosis gene expression Coll1a1: 2DDct: expression relative to vehicle group, 2^-ΔΔCt method, 18S-normalized; conditions: 21 days
Description: To investigate whether Compound #37 prevents the development of pathology associated with NASH and steatosis in an acute exploratory disease model, a study was conducted using a diet-induced acute liver steatosis model in mice. As described below, in this study, C57BL/6J mice were initiated on the Paigen diet and simultaneously treated with Compound #37 (5, 20, and 40 mg/kg/day) or vehicle control (20% HPβCD 10 mL/kg/day) by oral gavage for 21 days.
After acclimation, 8-week old male C57Bl/6J mice (Charles River) weighing about 25 g were randomized in 4 groups according their body weight and treated once daily around noon by oral gavage with vehicle, or Compound #37 at various for 21 days as follows: Group 1: vehicle-20% (2-hydroxypropyl)-β-cyclodextrin (HP-β-CD) (n=10); Group 2: Compound #37, 5 mg/kg (n=10) Group 3: Compound #37, 20 mg/kg (n=10) Group 4: Compound #37, 40 mg/kg (n=10). During the treatment period, body weight and food intake (measured over 24h) were measured 3 times per week and once a week, respectively. During the acclimation, all mice were fed a standard diet (Special Diets Services RM1 (E), product no. 801492) and tap water ad libitum. After the acclimation period, mice were fed until the end of the experiment with a 60% high fat Paigen diet (60 kcal % fat, 1.25% cholesterol, and 0.5% cholate; D11061901, Research Diet) and tap water ad libitum.
(§1) Gene expression analysis. Hepatic expression levels of genes involved in lipid metabolism (FAS, SREBP1, ACC1, SCD1), cholesterol metabolism (HMG-CoAR, LDLR), SREBP proteolysis (SCAP, INSIG1), ER stress (PERK), oxidative stress (NRF2), inflammation (MCP-1), and fibrosis (collagen 1α1) were quantified by RTqPCR. Expression level was normalized to 18S gene expression and relative expression to vehicle group was calculated with the […] method.

[1] = test system: diet-induced NASH obese insulin resistant mice; test: DIN mouse model: plasma lipid levels; conditions: 20 mg/kg, end of treatment
Description: (§2) Male C57Bl/6J mice (8 weeks old) were housed in enriched ventilated cages (31×12.5×12.7 cm) throughout the experimental phase. Animals' cages litters were changed at least once a week. Animal were housed 5 per cage on inverted 12-hour light cycle (at 09:00 am lights off), 22±2° C. and 55±10% relative humidity. The acclimation period was 20 days. During the acclimation period, all mice were fed a standard diet (RM1 (E) 801492, SDS) and tap water ad libitum. After the acclimation period, mice were fed with the DIN diet (60% fat, cholesterol enriched) and fructose-enriched tap water ad libitum until the end of the experiment.
(§3) At 6 weeks of diet, mice were 4-hour fasted (09:00 am to 1:00 pm) and blood (150 μl/EDTA) was collected at 01:00 pm by retro-orbital bleeding under isoflurane anesthesia. Mice were then allocated in 2 homogenous groups (n=12/group) according to their plasma levels of ALT (average levels: 685U/L), AST (average levels: 627U/L) and HOMA-IR index (average value: 4.7), into 2 homogenous groups (see values at day 0 in Tables 15A and 15B ALT/AST and Tables 16A and 16B for HOMA-IR). Mice were then treated once daily by oral gavage with vehicle (Group 1) or Compound #37 at 20 mg/kg (Group 2) for 70 days.
To investigate whether Compound #37 improves pre-existing steatosis/NASH pathology, a study was conducted using a 16-week diet-induced NASH mouse model. In this model, mice develop steatosis that progresses with inflammation and fibrosis that mimic many of the observed pathologies in human nonalcoholic fatty liver disease (NAFLD) and NASH (Hebbard & George, 2010). For 6 weeks, mice were fed a high-fat, high-cholesterol diet and provided drinking water containing fructose to induce liver pathology (Charlton et al, 2011). After 6 weeks, the mice were divided into 2 groups with similar mean aspartate aminotransferase (AST) and alanine aminotransferase (ALT) values (n=12 mice), although it should be noted that AST and ALT concentrations within both groups were higher and with greater variability than anticipated (e.g., mean ALT 677 U/L [SD, 401 U/L] in the vehicle control group and 693 U/L [SD, 365 U/L] in the Compound #37 group). After the animals were divided into 2 groups, the diet was continued for 10 additional weeks during which time 1 group received vehicle and the other was treated with 20 mg/kg/day Compound #37.

PERK = test: DIN mouse model: hepatic PERK gene expression; conditions: liver, 20 mg/kg group
Description: as §1, §2, §3
Hepatic expression levels of genes involved in lipid (FAS, SREBP1, ACC1, SCD1), cholesterol metabolism (HMG-CoAR, LDLR), in SREBP proteolysis (SCAP, INSIG1), in ER stress (PERK), oxidative stress (NRF2), and inflammation (MCP-1) were not changed. However, expression of collagen 1α1, involved in liver fibrosis, was reduced by 66% in mice treated with Compound #37 (p<0.05 vs. vehicle).

[2] = individual animals, vs vehicle mean, 20 mg/kg

## CC(C)Cc1cc(-c2nc(-c3ccc(NS(=O)(=O)C(F)(F)F)cc3Cl)cs2)ccn1 [Compound 37, N-(3-chloro-4-(2-(2-isobutylpyridin-4-yl)thiazol-4-yl)phenyl)-1,1,1-trifluoromethanesulfonamide]
Coll1a1; 5 mg/kg, group mean, n 10
  Fibrosis gene expression Coll1a1: 2DDct: 0.88
  Fibrosis gene expression Coll1a1: Coll1a1: 27.2
  Fibrosis gene expression Coll1a1: DDct: 0.84
  Fibrosis gene expression Coll1a1: Dct: 15
Coll1a1; 5 mg/kg, individual animals
  Fibrosis gene expression Coll1a1: 2DDct: 0.86 and 0.27 and 0.96 and 0.69 and 0.15 and 0.05 and 1.75 and 2.26 and 1.2 and 0.57
  Fibrosis gene expression Coll1a1: Coll1a1: 27.81 and 29.15 and 25.8 and 28.03 and 28.92 and 31.82 and 24.93 and 24.75 and 25.01 and 26.07
  Fibrosis gene expression Coll1a1: DDct: 0.21 and 1.9 and 0.05 and 0.54 and 2.75 and 4.33 and −0.81 and −1.18 and −0.27 and 0.81
  Fibrosis gene expression Coll1a1: Dct: 14.4 and 16.04 and 14.19 and 14.68 and 16.89 and 18.47 and 13.33 and 12.96 and 13.87 and 14.95
Coll1a1; 20 mg/kg, group mean, n 5
  Fibrosis gene expression Coll1a1: 2DDct: 0.68
Coll1a1; 20 mg/kg, group mean, n 6
  Fibrosis gene expression Coll1a1: Coll1a1: 26.6
  Fibrosis gene expression Coll1a1: DDct: 0.24
  Fibrosis gene expression Coll1a1: Dct: 14.4
Coll1a1; 20 mg/kg, individual animals
  Fibrosis gene expression Coll1a1: 2DDct: 0.28 and 0.85 and 0.66 and 1 and 0.61 and 3.91*
  Fibrosis gene expression Coll1a1: Coll1a1: 28.9 and 26.66 and 26.93 and 27.17 and 26.34 and 23.43
  Fibrosis gene expression Coll1a1: DDct: 1.85 and 0.23 and 0.59 and 0 and 0.71 and −1.97
  Fibrosis gene expression Coll1a1: Dct: 15.99 and 14.37 and 14.73 and 14.14 and 14.85 and 12.17
[1]; p<0.05 vs. vehicle
  HDL-cholesterol increase: 31%
[1]; group mean, n 11
  plasma HDL cholesterol: 1.42 g/L
  plasma cholesterol: 1.82 g/L
  plasma free fatty acids: 0.59 mM
  plasma triglycerides: 0.40 g/L
[1]; individual animals
  plasma HDL cholesterol: 1.65 g/L and 1.68 g/L and 1.10 g/L and 1.47 g/L (2×) and 1.90 g/L and 1.12 g/L and 1.43 g/L and 0.62 g/L and 1.62 g/L and 1.56 g/L
  plasma cholesterol: 2.49 g/L and 2.36 g/L and 1.95 g/L and 1.67 g/L and 2.12 g/L and 1.38 g/L and 1.62 g/L and 1.15 g/L and 1.57 g/L and 1.86 g/L and 1.90 g/L
  plasma free fatty acids: 0.73 mM and 0.63 mM and 0.59 mM (3×) and 0.29 mM and 0.65 mM and 0.56 mM and 0.71 mM and 0.44 mM and 0.67 mM
  plasma triglycerides: 0.37 g/L (2×) and 0.3 g/L and 0.42 g/L and 0.35 g/L and 0.40 g/L and 0.34 g/L and 0.45 g/L and 0.50 g/L and 0.47 g/L and 0.39 g/L
PERK; individual animals, normalised to 18S, 20 mg/kg
  PERK Dct: 14.23 and 14.41 and 16.11 and 14.89 and 14.95 and 14.18 and 14.85 and 14.3 and 15.75 and 16.07 and 12.9
PERK; [2]
  PERK 2^DDct: 1.2 and 1.06 and 0.33 and 0.76 and 0.73 and 1.24 and 0.78 and 1.15 and 0.42 and 0.34 and 3.02
  PERK DDct: −0.27 and −0.09 and 1.61 and 0.39 and 0.45 and −0.32 and 0.35 and −0.2 and 1.25 and 1.57 and −1.6
PERK; individual animals, 20 mg/kg
  PERK (Ct): 26.78 and 26.96 and 28.95 and 27.32 and 27.3 and 26.77 and 26.58 and 26.81 and 27.25 and 27.62 and 25.25
PERK; mean, n 11
  PERK 2^DDct: 1.00
  PERK (Ct): 27.1
  PERK DDct: 0.29
  PERK Dct: 14.8
